How the values were obtained:
[1] = target: GDP-bound HRAS wild-type protein (Homo sapiens, UniProt P01112); assay: Binding to HRAS by surface plasmon resonance (SPR), Single Cycle Kinetics; conditions: for HRAS/KRAS (ratio of KD value with respect to HRAS to KD value with respect to KRAS) / HRAS/KRAS (ratio of KD value for HRAS to KD value for KRAS): SPR, GDP-bound HRAS wild-type protein vs GDP-bound KRAS wild-type protein
[2] = target: GDP-bound NRAS wild-type protein (Homo sapiens, UniProt P01111); assay: Binding to NRAS by surface plasmon resonance (SPR), Single Cycle Kinetics; conditions: for NRAS/KRAS (ratio of KD value with respect to NRAS to KD value with respect to KRAS) / NRAS/KRAS (ratio of KD value for NRAS to KD value for KRAS): SPR, GDP-bound NRAS wild-type protein vs GDP-bound KRAS wild-type protein
Sequence of GDP-bound NRAS wild-type protein (P01111 whole entry): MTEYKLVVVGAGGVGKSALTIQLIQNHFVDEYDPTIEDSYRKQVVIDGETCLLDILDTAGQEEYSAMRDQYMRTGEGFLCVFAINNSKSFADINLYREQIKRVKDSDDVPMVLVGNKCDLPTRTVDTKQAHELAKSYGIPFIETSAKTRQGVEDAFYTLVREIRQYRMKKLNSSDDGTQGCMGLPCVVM

Sequence of GDP-bound HRAS wild-type protein (P01112 whole entry): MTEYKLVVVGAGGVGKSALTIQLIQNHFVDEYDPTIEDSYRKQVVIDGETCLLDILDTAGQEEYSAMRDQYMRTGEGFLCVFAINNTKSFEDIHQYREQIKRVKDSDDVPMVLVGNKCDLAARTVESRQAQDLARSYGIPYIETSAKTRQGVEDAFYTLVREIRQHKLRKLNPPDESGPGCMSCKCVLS

CCO[C@@H]1C[C@H]2C(=O)NC3(CCC3)C(=O)N(C)[C@@H](C3CCCC3)C(=O)N(C)[C@H](C(=O)N(C)C)CC(=O)N(C)[C@@H](CC3CCCCC3)C(=O)N[C@@H]([C@@H](C)CC)C(=O)N(C)CC(=O)N(C)[C@H]3CCCCCN(C3=O)[C@@H](Cc3ccc(C(F)(F)F)cc3)C(=O)N(C)CC(=O)N[C@@H](CCc3cc(F)c(C(F)(F)F)c(F)c3)C(=O)N2C1 [PP0671]
HRAS/KRAS (ratio of KD value with respect to HRAS to KD value with respect to KRAS) [1]: B (a compound having 3 or more and less than 10 is denoted as B) | NRAS/KRAS (ratio of KD value with respect to NRAS to KD value with respect to KRAS) [2]: B (a compound having 3 or more and less than 10 is denoted as B)

CCC[C@H]1C(=O)N[C@@H]([C@@H](C)CC)C(=O)N(C)CC(=O)N(C)[C@H]2C/C=C\CCN(C2=O)[C@@H](Cc2ccc(C)cc2)C(=O)N(C)CC(=O)N[C@@H](CCc2ccc(C(F)(F)F)c(OC)c2)C(=O)N2C[C@H](OCC)C[C@H]2C(=O)NC2(CC(C)(C)C2)C(=O)N(C)[C@@H](CC(C)C)C(=O)N(C)[C@H](C(=O)N(C)C)CC(=O)N1C [PP3008]
HRAS/KRAS (ratio of KD value for HRAS to KD value for KRAS) [1]: A (a compound having 10 or more and less than 20 is denoted as A) | NRAS/KRAS (ratio of KD value for NRAS to KD value for KRAS) [2]: A (a compound having 10 or more and less than 20 is denoted as A)

CC[C@H](C)[C@@H]1NC(=O)[C@H](CC(C)C)N(C)C(=O)C[C@@H](C(=O)N2CCOCC2)N(C)C(=O)[C@H](C2CCCC2)N(C)C(=O)[C@](C)(CC)NC(=O)[C@@H]2CCCN2C(=O)[C@H](CCc2cc(F)c(C(F)(F)F)c(F)c2)NC(=O)CN(C)C(=O)[C@H](Cc2ccc(C(F)(F)F)cc2)N2CCCCC[C@@H](C2=O)N(C)C(=O)CN(C)C1=O [PP0500]
HRAS/KRAS (ratio of KD value with respect to HRAS to KD value with respect to KRAS) [1]: B (a compound having 3 or more and less than 10 is denoted as B) | NRAS/KRAS (ratio of KD value with respect to NRAS to KD value with respect to KRAS) [2]: B (a compound having 3 or more and less than 10 is denoted as B)

CC[C@H](C)[C@@H]1NC(=O)[C@H](CC(C)C)N(C)C(=O)C[C@@H](C(=O)N2C3CCC2COC3)N(C)C(=O)[C@H](C2CCCC2)N(C)C(=O)C2(CCCC2)NC(=O)[C@@H]2CCCN2C(=O)[C@H](CCc2cc(F)c(C(F)(F)F)c(F)c2)NC(=O)CN(C)C(=O)[C@H](Cc2ccc(C(F)(F)F)cc2)N2CCCCC[C@@H](C2=O)N(C)C(=O)CN(C)C1=O [PP0511]
HRAS/KRAS (ratio of KD value with respect to HRAS to KD value with respect to KRAS) [1]: B (a compound having 3 or more and less than 10 is denoted as B) | NRAS/KRAS (ratio of KD value with respect to NRAS to KD value with respect to KRAS) [2]: A (a compound having 10 or more and less than 20 is denoted as A)

CCCOC[C@H]1C(=O)N[C@@H]([C@@H](C)CC)C(=O)N(C)CC(=O)N(C)[C@H]2C/C=C\CCN(C2=O)[C@@H](Cc2ccc(C)cc2)C(=O)N(C)CC(=O)N[C@@H](CCc2cc(F)c(C(F)(F)F)c(F)c2)C(=O)N2C[C@H](OCC)C[C@H]2C(=O)NC2(CC(C)(C)C2)C(=O)N(C)[C@@H](C2CCCC2)C(=O)N(C)[C@H](C(=O)N(C)CC)CC(=O)N1C [PP1577]
HRAS/KRAS (ratio of KD value for HRAS to KD value for KRAS) ([1]; KD ratio class): B (a compound having 3 or more and less than 10 is denoted as B) | NRAS/KRAS (ratio of KD value for NRAS to KD value for KRAS) ([2]; KD ratio class): B (a compound having 3 or more and less than 10 is denoted as B)

CCO[C@@H]1C[C@H]2C(=O)NC3(CC(C)(C)C3)C(=O)N(C)[C@@H](C(CC)CC)C(=O)N(C)[C@H](C(=O)N(C)C)CC(=O)N(C)[C@H]3CC/C=C/c4ccc(cc4)C[C@@H](C(=O)N(C)CC(=O)N[C@@H](CCc4cc(F)c(C(F)(F)F)c(F)c4)C(=O)N2C1)N1CC/C=C\C[C@@H](C1=O)N(C)C(=O)CN(C)C(=O)[C@H]([C@@H](C)CC)NC3=O [PP2586]
HRAS/KRAS (ratio of KD value with respect to GDP-bound HRAS wild-type protein to KD value with respect to KRAS) ([1]; SPR KD ratio HRAS/KRAS, class symbols): B (a compound having 3 or more and less than 10 is denoted as B) | NRAS/KRAS (ratio of KD value with respect to GDP-bound NRAS wild-type protein to KD value with respect to KRAS) ([2]; SPR KD ratio NRAS/KRAS, class symbols): A (a compound having 10 or more and less than 20 is denoted as A)

CCC[C@H]1C(=O)N[C@@H]([C@@H](C)CC)C(=O)N(C)CC(=O)N(C)[C@H]2C/C=C\CCN(C2=O)[C@@H](Cc2ccc(C)cc2)C(=O)N(C)CC(=O)N[C@@H](CCc2cc(F)c(C(F)(F)F)c(F)c2)C(=O)N2C[C@H](OCC)C[C@H]2C(=O)NC2(CC(C)(C)C2)C(=O)N(C)[C@@H](CC(C)C)C(=O)N(C)[C@H](C(=O)N(C)C)CC(=O)N1C [PP2995]
HRAS/KRAS (ratio of KD value for HRAS to KD value for KRAS) [1]: A (a compound having 10 or more and less than 20 is denoted as A) | NRAS/KRAS (ratio of KD value for NRAS to KD value for KRAS) [2]: A (a compound having 10 or more and less than 20 is denoted as A)

CCO[C@@H]1C[C@H]2C(=O)NC3(CCC3)C(=O)N(C)[C@@H](C3CCCC3)C(=O)N(C)[C@H](C)CC(=O)N(C)[C@@H](CC3CCCC3)C(=O)N[C@@H]([C@@H](C)CC)C(=O)N(C)CC(=O)N(C)[C@H]3C/C=C\CCN(C3=O)[C@@H](Cc3ccc(F)cc3)C(=O)N(C)CC(=O)N[C@@H](CCc3cc(F)c(C(F)(F)F)c(F)c3)C(=O)N2C1 [PP1492]
HRAS/KRAS (ratio of KD value for HRAS to KD value for KRAS) ([1]; KD ratio class): B (a compound having 3 or more and less than 10 is denoted as B) | NRAS/KRAS (ratio of KD value for NRAS to KD value for KRAS) ([2]; KD ratio class): B (a compound having 3 or more and less than 10 is denoted as B)

Source: US20240158446A1, “CYCLIC COMPOUND HAVING SELECTIVE INHIBITORY ACTION ON KRAS OVER HRAS AND NRAS” (CHUGAI SEIYAKU KABUSHIKI KAISHA, priority 2021, published 2024)
